Test results as given in US20230121325A1, “FAST DISSOLVING PHARMACEUTICAL COMPOSITIONS” (XSPRAY PHARMA AB, priority 2021, published 2023).

Assays:
[1] = Food effect analysis of Test Formulation (Fasted Study vs Fed Study); assay type: in vivo, human; conditions: Test Formulation single dose, least-squares geometric mean
Procedure: Objective: The objective of this analysis was to investigate the effect of food on the single-dose PK of Test Formulation using fasted and fed PK data from two studies, referred to as “Fasted Study” and “Fed Study,” respectively below.
Methodology. Since the PK parameters following the oral administration of Test Formulation in fasting and fed conditions were obtained from two different studies (Fasted Study and Fed Study, respectively), the PK data were analyzed using an analysis of variance (ANOVA), which considered the data as if they were collected in a parallel design.
Both studies were fully replicate studies and therefore subjects were dosed with Test Formulation on two occasions. The PK population in this analysis included subjects who received Test Formulation on two occasions; subjects who received Test Formulation only once were not included in this analysis.
In the current analysis, data from the PK population of the Fasted Study and Fed Study were considered “Reference” Treatment and “Test” Treatment, respectively.
For each parameter, the value used for the subject was the geometric mean of the two values that were available for each subject. The use of geometric means is consistent with the assumption that PK parameters are In normally distributed. Subjects with only one period of data were not included in the ANOVA, as this would incorrectly imply that singular data have the same weight as subjects with replicate values for the parameter.
In the Fasted Study, 51 subjects received Test Formulation on at least one occasion under fasting conditions, of whom 44 received Test Formulation on both occasions.
In the Fed Study, 32 subjects received Test Formulation on at least one occasion under fed conditions, of whom 27 received Test Formulation on both occasions.

[2] = within and between patients; cited from earlier work
clinical = conditions: human, in vivo, 90 mg

AUC(0-24 h) LSmeans Fed ([1]; fed (n = 27)): 413 ng·h/mL
AUC(0-t) ([1]; human, plasma, oral, fasting (n = 44), read-out: AUC(0-24 h) LSmeans Fasted): 433 ng·h/mL
AUC(0-inf) ([1]; human, plasma, oral, fasting (n = 44), read-out: AUC(0-∞) LSmeans Fasted): 446 ng·h/mL
Cmax ([1]; human, plasma, oral, fasting (n = 44), read-out: Cmax LSmeans Fasted): 127 ng/mL
AUC(0-inf) ([1]; human, plasma, oral, fed (n = 27), read-out: AUC(0-∞) LSmeans Fed): 431 ng·h/mL
Cmax ([1]; human, plasma, oral, fed (n = 27), read-out: Cmax LSmeans Fed): 67 ng/mL
AUC(0-inf) (clinical): 434 ng·h/mL
Cmax (clinical): 138 ng/mL
SMILES: Cc1nc(Nc2ncc(C(=O)Nc3c(C)cccc3Cl)s2)cc(N2CCN(CCO)CC2)n1 [Dasatinib, dasatinib]
coefficient of variation of AUC [2]: up to 100%
coefficient of variation of Cmax [2]: up to 100%
